Experimental data as given in patent publication US9012397B2 (priority 2011, dated 2015).
Like-named read-outs stand apart in the source and are kept apart here.

System: burns
Type: in vivo, human
Protocol: The method of the invention has been carried out with respect to a number of skin disorders. The patients were treated with one of two peptides, each at a concentration of 50 μg/gr cream (unless otherwise indicated):
The cream was manufactured by Amiga LTD, Israel, and contains the following components:
1. A person was lightly burned on the back of the hand which touched a very hot object. ZEP4 was immediately applied to the burn site. • Results: the burn mark disappeared within 1 hour. No additional treatments were necessary.
2. A person was severely burned by boiling water on the palm of the hand. […] At the end of 2 weeks there was no sign of the burn, nor thereafter.
3. person two was lightly burned on their finger from boiling oil. […] No further treatments were necessary.
5. A person was burnt on their hand from an oven. […] The burn took on a light brown color.
6. 4 light burn cases, three from touching a hot surface and one from a chemical substance in a laboratory, were treated with ZEP3.
8. person three with irritated skin on the hand due to the rubbing of a watch band. The irritated skin came into contact with a chemical substance (used as a disinfectant). A severe redness developed similar to a burn, and a strong itching feeing. […] D. Oral Cavity

## pGLU-ASN-TRP-LYS-C8 [ZEP3]
4 light burn cases (three hot surface, one chemical substance), 50 μg/gr cream
  clinical outcome: found to be therapeutic both for the pain and for the healing
Person three, irritated skin on hand contacted a disinfectant, burn-like redness and itching, ZEP4 and ZEP3 each 500 μg/gr cream
  clinical outcome: immediate relief from the redness and itching
